The source made the active and inactive calls. The calls are words filed in the database; no cut-off is given here.
Experiments:
Staphylococcus aureus [1] = assay: Antibacterial activity against methicillin-resistant Staphylococcus aureus 15 infected in BALB/c mouse sepsis model assessed as normalization of cell morphology in spleen at 10 mg/kg, ip measured after 48 hrs by H & E staining based analysis; assay type: functional, organism-based
Staphylococcus aureus [2] = assay: Antibacterial activity against Staphylococcus aureus ATCC 29213 assessed as inhibition of bacterial growth incubated for 16 to 20 hrs by CLSI based microdilution method; assay type: functional; details: time 16-20 hrs
Staphylococcus aureus [3] = assay: Inhibition of biofilm formation in Staphylococcus aureus ATCC 29213 assessed as destruction of formed biofilm at 0 to 128 ug/ml incubated for 24 hrs by crystal violet staining based analysis; assay type: functional, organism-based; details: dose 0-128 µg/ml
Staphylococcus aureus [4] = assay: Induction of drug resistance in Staphylococcus aureus ATCC 29213 assessed as increase in MIC at 0.5 times MIC measured for 20 days by CLSI based microdilution method; assay type: functional, organism-based; details: time 20.0 day
Staphylococcus aureus [5] = assay: Antibacterial activity against methicillin-resistant Staphylococcus aureus 15 infected in BALB/c mouse sepsis model assessed as reduction in bacterial load in kidney at 10 mg/kg, ip measured after 48 hrs; assay type: functional, organism-based
[6] = Toxicity in BALB/c mouse assessed as effect on hemoglobin level at 50 mg/kg, ip administered as single dose and measured after 24 hrs; assay type: organism-based; details: in vivo
[7] = Toxicity in BALB/c mouse assessed as effect on WBC count at 50 mg/kg, ip administered as single dose and measured after 24 hrs; assay type: organism-based; details: in vivo
Staphylococcus aureus [8] = assay: Antibiofilm activity against methicillin-resistant Staphylococcus aureus 15 assessed as reduction in live bacteria in biofilm incubated for 24 hrs by crystal violet staining based analysis; assay type: functional, organism-based; details: dose 0-128 µg/ml
Staphylococcus aureus [9] = assay: Inhibition of biofilm formation in methicillin-resistant Staphylococcus aureus 15 at 64 ug/ml incubated for 24 hrs by crystalline violet staining based analysis; assay type: functional
[10] = Toxicity in BALB/c mouse assessed as effect on RBC count at 50 mg/kg, ip administered as single dose and measured after 24 hrs; assay type: organism-based, Erythrocyte; details: in vivo
[11] = Toxicity in BALB/c mouse assessed as pathological changes in kidney at 50 mg/kg, ip administered as single dose and measured after 24 hrs by H & E staining based analysis; assay type: organism-based; details: in vivo
Staphylococcus aureus [12] = assay: Inhibition of biofilm formation in Staphylococcus aureus ATCC 29213 at 64 ug/ml incubated for 24 hrs by crystalline violet staining based analysis; assay type: functional
[13] = Toxicity in BALB/c mouse assessed as pathological changes in liver at 50 mg/kg, ip administered as single dose and measured after 24 hrs by H & E staining based analysis; assay type: organism-based; details: in vivo
[14] = Toxicity in BALB/c mouse assessed as effect on albumin level at 50 mg/kg, ip administered as single dose and measured after 24 hrs; assay type: organism-based; details: in vivo
Staphylococcus aureus [15] = assay: Antibacterial activity against methicillin-resistant Staphylococcus aureus 15 incubated for 16 to 18 hrs in presence of phosphatidylethanolamine by checkerboard microdilution assay; assay type: functional, organism-based; details: time 16-18 hrs
Staphylococcus aureus [16] = assay: Inhibition of biofilm formation in methicillin-resistant Staphylococcus aureus 15 incubated for 24 hrs by crystalline violet staining based analysis; assay type: functional, organism-based; details: dose 0.125-64 µg/ml
Cell membrane [17] = assay: Induction of membrane depolarization in methicillin-resistant Staphylococcus aureus 15 assessed as increase in fluorescence intensity at 32 ug/ml by DiSC3-5 dye based fluorescence method; assay type: subcellular; details: dose 32.0 µg/ml
Cell membrane [18] = assay: Disruption of membrane integrity in methicillin-resistant Staphylococcus aureus 15 at 32 ug/ml by SEM analysis; assay type: subcellular; details: dose 32.0 µg/ml
Staphylococcus aureus [19] = assay: Antibacterial activity against methicillin-resistant Staphylococcus aureus 15 infected in BALB/c mouse sepsis model assessed as improvement in survival rate at 5 to 10 mg/kg, ip administered for 7 days; assay type: functional, organism-based; details: dose 5-10 mg/kg, time 7.0 day
Staphylococcus aureus [20] = assay: Antibacterial activity against methicillin-resistant Staphylococcus aureus 15 infected in BALB/c mouse sepsis model assessed as survival rate at 20 mg/kg, ip administered for 7 days; assay type: functional; details: Staphylococcus aureus, 15, 168 h, time 7 day
Staphylococcus aureus [21] = assay: Antibacterial activity against methicillin-resistant Staphylococcus aureus 15 infected in BALB/c mouse sepsis model assessed as reduction in bacterial load in liver at 10 mg/kg, ip measured after 48 hrs; assay type: functional, organism-based
[22] = Toxicity in BALB/c mouse assessed as effect on mean corpuscular volume at 50 mg/kg, ip administered as single dose and measured after 24 hrs; assay type: organism-based; details: in vivo
[23] = Toxicity in BALB/c mouse assessed as effect on hematocrit level at 50 mg/kg, ip administered as single dose and measured after 24 hrs; assay type: organism-based; details: in vivo
Staphylococcus aureus [24] = assay: Inhibition of biofilm formation in methicillin-resistant Staphylococcus aureus 15 assessed as destruction of formed biofilm at 128 ug/ml incubated for 24 hrs by crystal violet staining based analysis relative to control; assay type: functional
Staphylococcus aureus [25] = assay: Antibacterial activity against methicillin-resistant Staphylococcus aureus 15 incubated for 16 to 18 hrs in presence of phosphatidylglycerol by checkerboard microdilution assay; assay type: functional, organism-based; details: time 16-18 hrs
[26] = Toxicity in BALB/c mouse assessed as pathological changes in spleen at 50 mg/kg, ip administered as single dose and measured after 24 hrs by H & E staining based analysis; assay type: organism-based; details: in vivo
[27] = Selectivity index, ratio of HC50 for hemolytic activity in sheep RBC to MIC for antibacterial activity against Staphylococcus aureus ATCC 29213; assay type: toxicity; details: sheep red blood cells
Staphylococcus aureus [28] = assay: Antibacterial activity against methicillin-resistant Staphylococcus aureus 15 infected in BALB/c mouse sepsis model assessed as reduction in inflammatory factors in organs at 10 mg/kg, ip measured after 48 hrs by H & E staining based analysis; assay type: functional, organism-based
Cell membrane [29] = assay: Disruption of membrane integrity in methicillin-resistant Staphylococcus aureus 15 assessed as increase in red fluorescence at 16 ug/ml incubated for 1 hr by DAPI/PI staining based fluorescence microscopic analysis; assay type: subcellular; details: dose 16.0 µg/ml
Cell membrane [30] = assay: Induction of cell membrane disruption in methicillin-resistant Staphylococcus aureus 15 assessed as DNA leakage at 1 to 6 times MIC incubated for 1 to 2 hrs by microspectrophotometer; assay type: subcellular; details: time 1-2 hrs
Staphylococcus aureus [31] = assay: Antibacterial activity against methicillin-resistant Staphylococcus aureus 15 infected in BALB/c mouse sepsis model assessed as normalization of cell morphology in kidney at 10 mg/kg, ip measured after 48 hrs by H & E staining based analysis; assay type: functional, organism-based
Staphylococcus aureus [32] = assay: Antibacterial activity against methicillin-resistant Staphylococcus aureus 15 incubated for 16 to 18 hrs in presence of peptidoglycan by checkerboard microdilution assay; assay type: functional, organism-based; details: time 16-18 hrs
Enterococcus faecalis = assay: Antibacterial activity against Enterococcus faecalis ATCC 29212 assessed as inhibition of bacterial growth incubated for 16 to 20 hrs by CLSI based microdilution method; assay type: functional; details: time 16-20 hrs
Salmonella enterica [33] = assay: Antibacterial activity against Salmonella enterica 8389 assessed as inhibition of bacterial growth incubated for 16 to 20 hrs by CLSI based microdilution method; assay type: functional; details: time 16-20 hrs
Escherichia coli = assay: Antibacterial activity against Escherichia coli ATCC 25922 assessed as inhibition of bacterial growth incubated for 16 to 20 hrs by CLSI based microdilution method; assay type: functional; details: time 16-20 hrs
Salmonella enterica [34] = assay: Antibacterial activity against Salmonella enterica H9812 assessed as inhibition of bacterial growth incubated for 16 to 20 hrs by CLSI based microdilution method; assay type: functional; details: time 16-20 hrs
[35] = Hemolytic activity in sheep RBC incubated for 1 hr by absorbance based analysis; assay type: toxicity, cell-based, Ovis aries, Erythrocyte; details: sheep red blood cells

Structure (SMILES)	Activity (Staphylococcus aureus [1])	MIC (Staphylococcus aureus [2])	inhibition (Staphylococcus aureus [3])	Activity (Staphylococcus aureus [4])	Activity (Staphylococcus aureus [5])	Activity [6]	Activity [7]	Activity (Staphylococcus aureus [8])	inhibition at 64 µg/mL (Staphylococcus aureus [9])	Activity [10]	Activity [11]	inhibition at 64 µg/mL (Staphylococcus aureus [12])	Activity [13]	Activity [14]	Activity (Staphylococcus aureus [15])	inhibition (Staphylococcus aureus [16])	Activity (Cell membrane [17])	Activity (Cell membrane [18])	Activity (Staphylococcus aureus [19])	survival at 20 mg/kg (Staphylococcus aureus [20])	other results
C=CCc1cccc(Oc2ccc(C(=O)CC)cc2)c1OCCC[N+](C)(C)CC(=O)NCCCCCC.[Br-]	Active	2 µg/mL	Active	inactive	Active	Non-Toxic	Non-Toxic	Active	100%	Non-Toxic	Non-Toxic	100%	Non-Toxic	Non-Toxic	Active	Dose-Dependent Effect	Active	Active	Active	100%	Activity (Staphylococcus aureus [21]): Active; Activity [22]: Non-Toxic; Activity [23]: Non-Toxic; inhibition at 128 µg/mL (Staphylococcus aureus [24]): > 80%; Activity (Staphylococcus aureus [25]): inactive; Activity [26]: Non-Toxic; selectivity ratio [27]: 458; Activity (Staphylococcus aureus [28]): Active; Activity (Cell membrane [29]): Active; Activity (Cell membrane [30]): Active; Activity (Staphylococcus aureus [31]): Active; Activity (Staphylococcus aureus [32]): Active; MIC (Enterococcus faecalis): 2 µg/mL; MIC (Salmonella enterica [33]): 32 µg/mL; MIC (Escherichia coli): 16 µg/mL; MIC (Salmonella enterica [34]): 32 µg/mL; HC50 at 1 h [35]: 916 µg/mL
C=CCc1cccc(Oc2ccc(C(=O)CC)cc2)c1OCC[N+](C)(C)CC(=O)NCCCCCC.[Br-]	Active	2 µg/mL	Active	inactive	Active	Non-Toxic	Non-Toxic	Active	100%	Non-Toxic	Non-Toxic	100%	Non-Toxic	Non-Toxic	Active	Dose-Dependent Effect	Active	Active	Active	100%	Activity (Staphylococcus aureus [21]): Active; Activity [22]: Non-Toxic; Activity [23]: Non-Toxic; inhibition at 128 µg/mL (Staphylococcus aureus [24]): > 80%; Activity (Staphylococcus aureus [25]): inactive; Activity [26]: Non-Toxic; selectivity ratio [27]: 556; Activity (Staphylococcus aureus [28]): Active; Activity (Cell membrane [29]): Active; Activity (Cell membrane [30]): Active; Activity (Staphylococcus aureus [31]): Active; Activity (Staphylococcus aureus [32]): Active; MIC (Enterococcus faecalis): 2 µg/mL; MIC (Salmonella enterica [33]): 64 µg/mL; MIC (Escherichia coli): 8 µg/mL; MIC (Salmonella enterica [34]): 64 µg/mL; HC50 at 1 h [35]: 1110 µg/mL

Source: ChEMBL document CHEMBL5236634, “Membrane-Targeting Neolignan-Antimicrobial Peptide Mimic Conjugates to Combat Methicillin-Resistant Staphylococcus aureus (MRSA) Infections” (J Med Chem, 2022)
